Source: ChEMBL document CHEMBL1201862, “PubChem BioAssay data set” (2004)
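Interpolation was linear, between the two tested concentrations surrounding the appropriate level; five concentrations were tested over 48 hours in 96-well plates. At the GI50, growth is halved.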 Activity calls are given as the source filed them. No stated cut-off is given here; in the data, active = GI50 up to about 1.1 µM and inactive = higher.

Legend:
Assay in all cases: DTP human tumour cell line panel, 48 h
MOLT-4 = tested on: MOLT-4
UACC-62 = tested on: UACC-62
MCF7 = tested on: MCF7
HCT-116 = tested on: HCT-116
UACC-257 = tested on: UACC-257
T47D = tested on: T47D
NCI-H522 = tested on: NCI-H522
TK-10 = tested on: TK-10
A498 = tested on: A498
DU-145 = tested on: DU-145
SW-620 = tested on: SW-620
OVCAR-3 = tested on: OVCAR-3
OVCAR-4 = tested on: OVCAR-4
SNB-19 = tested on: SNB-19
IGROV-1 = tested on: IGROV-1
Hs-578T = tested on: Hs-578T
ACHN = tested on: ACHN
RXF 393 = tested on: RXF 393

Measured: GI50

C=CC[C@@H]1C=C[C@@H](C(=O)OC)n2c(=O)n(-c3ccccc3)c(=O)n21
inactive: MOLT-4 > 100 µM | UACC-62 > 100 µM | MCF7 > 100 µM | HCT-116 > 100 µM | UACC-257 > 100 µM | T47D > 100 µM | NCI-H522 > 100 µM | TK-10 > 100 µM | A498 > 100 µM | DU-145 > 100 µM | SW-620 > 100 µM | OVCAR-3 > 100 µM | OVCAR-4 > 100 µM | SNB-19 > 100 µM | IGROV-1 > 100 µM | Hs-578T > 100 µM | ACHN > 100 µM

O=c1oc2ccccc2cc1/C=N/N1C(=S)N(c2ccccc2)C(=N\c2ccccc2)/C1=N/c1ccccc1
inactive: MOLT-4 > 100 µM | UACC-62 98.2 µM | MCF7 > 100 µM | HCT-116 41.4 µM | UACC-257 96.8 µM | T47D 3.49 µM | NCI-H522 34 µM | TK-10 > 100 µM | RXF 393 26.4 µM | DU-145 > 100 µM | SW-620 8.71 µM | OVCAR-3 > 100 µM | SNB-19 > 100 µM | IGROV-1 > 100 µM | Hs-578T > 100 µM | ACHN 39.6 µM

CCOC(=O)Nc1sc2c(c1C#N)CC(C)CC2 (centres undefined)
inactive: MOLT-4 4.9 µM | UACC-62 4.49 µM | MCF7 3.96 µM | HCT-116 4 µM | UACC-257 11 µM | T47D 10.5 µM | NCI-H522 1.25 µM | TK-10 6.62 µM | RXF 393 5.38 µM | DU-145 20.9 µM | SW-620 4.74 µM | OVCAR-3 5.87 µM | OVCAR-4 18.7 µM | SNB-19 3.16 µM | IGROV-1 7.52 µM | Hs-578T 8.59 µM | ACHN 14.7 µM

CNC(=S)N1CCN(C(C)=O)C1=S
inactive: MOLT-4 30.8 µM | UACC-62 43.7 µM | MCF7 42 µM | HCT-116 > 100 µM | UACC-257 70.6 µM | T47D 19.5 µM | NCI-H522 45.1 µM | TK-10 > 100 µM | A498 35.6 µM | DU-145 > 100 µM | SW-620 86.5 µM | OVCAR-3 35.4 µM | OVCAR-4 6.56 µM | IGROV-1 44.9 µM | Hs-578T 23.6 µM | ACHN > 100 µM

Clc1cccc(Cl)c1C1SCc2nc3cc4ccccc4cc3n21 (centres undefined)
inactive: MOLT-4 > 100 µM | UACC-62 > 100 µM | MCF7 > 100 µM | HCT-116 > 100 µM | UACC-257 > 100 µM | T47D > 100 µM | TK-10 > 100 µM | RXF 393 > 100 µM | DU-145 > 100 µM | SW-620 > 100 µM | OVCAR-3 > 100 µM | OVCAR-4 > 100 µM | SNB-19 > 100 µM | IGROV-1 > 100 µM | Hs-578T > 100 µM | ACHN > 100 µM

C=CCN1C[C@@H](C)N([C@@H](c2ccc(C(=O)N(CC)CC)cc2)c2cccc(OC)c2)C[C@@H]1C
inactive: MOLT-4 > 100 µM | UACC-62 > 100 µM | MCF7 49.8 µM | HCT-116 > 100 µM | T47D > 100 µM | NCI-H522 > 100 µM | A498 > 100 µM | DU-145 > 100 µM | SW-620 > 100 µM | OVCAR-3 > 100 µM | OVCAR-4 > 100 µM | SNB-19 > 100 µM | IGROV-1 > 100 µM | Hs-578T > 100 µM | ACHN > 100 µM

CC(C)=CCC/C(C)=C/CO [GERANIOL]
inactive: MOLT-4 > 100 µM | UACC-62 > 100 µM | MCF7 > 100 µM | HCT-116 > 100 µM | UACC-257 > 100 µM | T47D > 100 µM | NCI-H522 > 100 µM | TK-10 > 100 µM | A498 > 100 µM | DU-145 > 100 µM | SW-620 > 100 µM | OVCAR-3 > 100 µM | OVCAR-4 > 100 µM | SNB-19 > 100 µM | IGROV-1 > 100 µM | Hs-578T > 100 µM | ACHN > 100 µM
